The test has as its target T1, TYK2-JH2 (Homo sapiens, UniProt P29597).
T1 construct: TYK JH2 enzyme mix (ChemPartner: CP20210818A-BV); purchased ChemPartner CP20210818A-BV
Nature of the test: TYK2-JH2 HTRF binding assay (ligand efficiency). The note with it: calculated from binding-assay IC50 (Equation 1). Here is the method: The following example describes the TYK2-JH2 HTRF binding assay used to determine the ligand efficiency of the TYK2 inhibitors.
To calculate ligand efficiency, Equation 1 is applied: […]
in which IC50 comes from the binding assay used to determine compound potency.
TYK JH2 enzyme mix (ChemPartner: CP20210818A-BV), tracer (ChemPartner: CP-0029472-051) and mAb Anti-6HIS Tb cryptate Gold (Cisbio: Cat No. 61HI2TLA) mix were prepared in assay buffer (10 mM MgCl2, 20 mM HEPES pH 7.5, 0.01% Triton X-100, 1 mM DTT). Compounds diluted in DMSO (Final Concentrations 0.1 to 0.000005 [μM]) and enzyme mix (0.5 nM Final Concentration) were added to 384 well plates, briefly centrifuged and incubated at room temperature for 10 minutes. After incubation, tracer mix (Tracer-35 nM final concentration); (MAb Anti-6HIS Tb cryptate Gold-0.5× final)) was added, briefly centrifuged then incubate at room temperature 60 minutes. After incubation, plates were read by Envision TR-FRET (Ex340/Em495/520) protocol (PerkinElmer-Envision 2104 multilabel plate reader).
T1 sequence (P29597 589-875 limits assumed): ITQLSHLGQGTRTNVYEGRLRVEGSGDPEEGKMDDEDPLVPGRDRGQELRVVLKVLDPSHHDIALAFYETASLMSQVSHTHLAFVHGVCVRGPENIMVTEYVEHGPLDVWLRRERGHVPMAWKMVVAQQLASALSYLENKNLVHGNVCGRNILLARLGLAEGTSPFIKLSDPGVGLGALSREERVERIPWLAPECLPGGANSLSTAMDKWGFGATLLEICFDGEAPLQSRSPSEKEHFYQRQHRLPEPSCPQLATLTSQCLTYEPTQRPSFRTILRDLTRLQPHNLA
In the case of `CC(c1ccc(Nc2cc(Nc3ncccc3S(C)(=O)=O)ncn2)nc1)N1CC2(CC(C(F)F)C2)C1` (stereo not shown) [Compound 34, N^4-(5-(1-(6-(difluoromethyl)-2-azaspiro[3.3]heptan-2-yl)ethyl)pyridin-2-yl)-N^6-(3-(methylsulfonyl)pyridin-2-yl)pyrimidine-4,6-diamine], the “Ligand Efficiency” value is recorded as “†† (††: 0.37-0.39)”.
With `CC(NC1CC(F)(F)C1)c1ccc(Nc2cc(Nc3ncccc3S(C)(=O)=O)ncn2)nc1` (stereo not shown) [Compound 35, N^4-(5-(1-(3,3-difluorocyclobutylamino)ethyl)pyridin-2-yl)-N^6-(3-(methylsulfonyl)pyridin-2-yl)pyrimidine-4,6-diamine] the entry was “††† (†††: >0.39)”; with `CC1(CNc2ccc(Nc3cc(Nc4ncccc4S(C)(=O)=O)ncn3)nc2)COC1` [Compound 36, N^4-(5-(((3-methyloxetan-3-yl)methyl)amino)pyridin-2-yl)-N^6-(3-(methylsulfonyl)pyridin-2-yl)pyrimidine-4,6-diamine], “††† (†††: >0.39)”; with `CS(=O)(=O)c1cccnc1Nc1cc(Nc2ccc(NC3CC(F)(F)C3)cn2)ncn1` [Compound 37, N^4-(5-(3,3-difluorocyclobutylamino)pyridin-2-yl)-N^6-(3-(methylsulfonyl)pyridin-2-yl)pyrimidine-4,6-diamine], “††† (†††: >0.39)”.
The same measure for `CS(=O)(=O)c1cccnc1Nc1cc(Nc2ccc(C(=O)NC3CC(F)(F)C3)cn2)ncn1` [Compound 38, N-(3,3-difluorocyclobutyl)-6-(6-(3-(methylsulfonyl)pyridine-2-ylamino)pyrimidin-4-ylamino)nicotinamide]: “††† (†††: >0.39)”; for `CC(C)(NC1COC1)c1ccc(Nc2cc(Nc3ccccc3S(C)(=O)=O)ncn2)nc1` [Compound 39, N^4-(2-(methylsulfonyl)phenyl)-N^6-(5-(2-(oxetan-3-ylamino)propan-2-yl)pyridin-2-yl)pyrimidine-4,6-diamine]: “†† (††: 0.37-0.39)”.
With `CS(=O)(=O)c1ccccc1Nc1cc(Nc2ccc(C3(NC4COC4)CC3)cn2)ncn1` [Compound 41, N^4-(2-(methylsulfonyl)phenyl)-N^6-(5-(1-(oxetan-3-ylamino)cyclopropyl)pyridin-2-yl)pyrimidine-4,6-diamine] the entry was “†† (††: 0.37-0.39)”.
Regarding `CS(=O)(=O)c1ccccc1Nc1cc(Nc2ccc(N3CCOCC3)cn2)ncn1` [Compound 42, N^4-(2-(methylsulfonyl)phenyl)-N^6-(5-morpholinopyridin-2-yl) pyrimidine-4,6-diamine], the “Ligand Efficiency” value was “††† (†††: >0.39)”.
With `CS(=O)(=O)c1ccccc1Nc1cc(Nc2ccc(C(=O)NC3CCOC3)cn2)ncn1` (stereo not shown) [Compound 43, 6-(6-(2-(methylsulfonyl)phenylamino)pyrimidin-4-ylamino)-N-(tetrahydrofuran-3-yl)nicotinamide] the entry was “†† (††: 0.37-0.39)”.
Consider `Cc1ccnc(Nc2cc(Nc3ccccc3S(C)(=O)=O)ncn2)c1` [Compound 44, N^4-(4-methylpyridin-2-yl)-N^6-(2-(methylsulfonyl)phenyl) pyrimidine-4,6-diamine], for which the “Ligand Efficiency” value is “††† (†††: >0.39)”.
Consider `Cc1ccnc(Nc2cc(Nc3ccccc3C(N)=O)ncn2)c1` [Compound 45, 2-((6-((4-methylpyridin-2-yl)amino)pyrimidin-4-yl)amino) benzamide], for which the “Ligand Efficiency” value is reported as “††† (†††: >0.39)”.
Turning to `Cc1cccc(Nc2cc(Nc3ccccc3C(N)=O)ncn2)n1` [Compound 46], the “Ligand Efficiency” value is on record as “††† (†††: >0.39)”.
`Cc1cnnc(Nc2cc(Nc3ccccc3C(N)=O)ncn2)c1` [Compound 47, 2-((6-((5-methylpyridazin-3-yl)amino)pyrimidin-4-yl)amino) benzamide]: the “Ligand Efficiency” value is “††† (†††: >0.39)”.
As to `Cc1nccc(Nc2cc(Nc3ccccc3C(N)=O)ncn2)n1` [Compound 48, 2-((6-((2-methylpyrimidin-4-yl)amino)pyrimidin-4-yl)amino) benzamide], the “Ligand Efficiency” value was “††† (†††: >0.39)”.
The same measure for `Cc1cncc(Nc2cc(Nc3ccccc3C(N)=O)ncn2)n1` [Compound 49, 2-(6-(6-methylpyrazin-2-ylamino)pyrimidin-4-ylamino)benzamide]: “††† (†††: >0.39)”; for `Cc1cccc(Nc2cc(Nc3cccnc3C(N)=O)ncn2)n1` [Compound 50, 3-((6-((6-methylpyridin-2-yl)amino)pyrimidin-4-yl)amino) picolinamide]: “††† (†††: >0.39)”.
For `Cc1cccc(Nc2cc(Nc3ccncc3C(N)=O)ncn2)n1` [Compound 51, 4-((6-((6-methylpyridin-2-yl)amino)pyrimidin-4-yl)amino) nicotinamide], the “Ligand Efficiency” value is recorded as “††† (†††: >0.39)”.
In the case of `Cc1cccc(Nc2cc(Nc3ncccc3C(N)=O)ncn2)n1` [Compound 52, 2-((6-((6-methylpyridin-2-yl)amino)pyrimidin-4-yl)amino) nicotinamide], the “Ligand Efficiency” value is “††† (†††: >0.39)”.
Consider `Cc1cccc(Nc2cc(Nc3ccccc3NS(C)(=O)=O)ncn2)n1` [Compound 53, N-(2-(6-(6-methylpyridin-2-ylamino)pyrimidin-4-ylamino)phenyl) methanesulfonamide], for which the “Ligand Efficiency” value is “††† (†††: >0.39)”.
On to `C[C@H]1COCCN1c1ccc(Nc2cc(Nc3ccccc3S(C)(=O)=O)ncn2)nc1` [Compound 54, (S)—N^4-(5-(3-methylmorpholino)pyridin-2-yl)-N^6-(2-(methylsulfonyl)phenyl)pyrimidine-4,6-diamine], for which the “Ligand Efficiency” value is “† (†: < 0.37)”.
Regarding `Cc1cccc(Nc2cc(Nc3ccccc3C(N)=O)nc(N)n2)n1` [Compound 55, 2-((2-amino-6-((6-methylpyridin-2-yl)amino)pyrimidin-4-yl)amino)benzamide], the “Ligand Efficiency” value is given as “†† (††: 0.37-0.39)”.
Take `Cc1cccc(Nc2cc(Nc3ccccc3S(C)(=O)=O)nc(C)n2)n1` [Compound 56, 2-methyl-N^4-(6-methylpyridin-2-yl)-N^6-(2-(methylsulfonyl)phenyl) pyrimidine-4,6-diamine]: the “Ligand Efficiency” value is given as “† (†: < 0.37)”.
The same measure for `Cc1cccc(Nc2cc(Nc3ccccc3S(C)(=O)=O)nc(N)n2)n1` [Compound 57, N^4-(6-methylpyridin-2-yl)-N^6-(2-(methylsulfonyl)phenyl)pyrimidine-2,4,6-triamine]: “††† (†††: >0.39)”; for `Cc1ccnc(Nc2cc(Nc3ccccc3C(N)=O)ncn2)n1` [Compound 58, 2-(6-(4-methylpyrimidin-2-ylamino)pyrimidin-4-ylamino)benzamide]: “††† (†††: >0.39)”; for `Cc1cccc(Nc2cc(Nc3cccnc3S(C)(=O)=O)ncn2)n1` [Compound 59, N^4-(6-methylpyridin-2-yl)-N^6-(2-(methylsulfonyl)pyridin-3-yl) pyrimidine-4,6-diamine]: “††† (†††: >0.39)”.
In the case of `Cc1cccc(Nc2cc(Nc3ccncc3S(C)(=O)=O)ncn2)n1` [Compound 60, N^4-(6-methylpyridin-2-yl)-N^6-(3-(methylsulfonyl)pyridin-4-yl) pyrimidine-4,6-diamine], the “Ligand Efficiency” value is “††† (†††: >0.39)”.
The same measure for `Cc1cccc(Nc2cc(Nc3cnccc3C(N)=O)ncn2)n1` [Compound 61, 3-((6-((6-methylpyridin-2-yl)amino)pyrimidin-4-yl)amino) isonicotinamide]: “††† (†††: >0.39)”.
The same measure for `Cc1ccnc(Nc2cc(Nc3ccccc3P(C)(C)=O)ncn2)c1` [Compound 63, N^4-(2-(dimethylphosphoryl)phenyl)-N^6-(4-methylpyridin-2-yl) pyrimidine-4,6-diamine]: “††† (†††: >0.39)”; for `CS(=O)(=O)c1cccnc1Nc1cc(Nc2ncccc2F)ncn1` [Compound 64, N^4-(3-fluoropyridin-2-yl)-N^6-(3-(methylsulfonyl)pyridin-2-yl) pyrimidine-4,6-diamine]: “††† (†††: >0.39)”; for `COc1ccnc(Nc2cc(Nc3cccc(C)n3)ncn2)c1S(C)(=O)=O` [Compound 65, N^4-(4-methoxy-3-(methylsulfonyl)pyridin-2-yl)-N^6-(6-methylpyridin-2-yl)pyrimidine-4,6-diamine]: “††† (†††: >0.39)”.
The same measure for `Cn1ccc(Nc2cc(Nc3ccccc3S(C)(=O)=O)ncn2)n1` [Compound 66, N^4-(1-methyl-1H-pyrazol-3-yl)-N^6-(2-(methylsulfonyl)phenyl) pyrimidine-4,6-diamine]: “††† (†††: >0.39)”; for `Cn1ccc(Nc2cc(Nc3ccccc3C(N)=O)ncn2)n1` [Compound 67, 2-((6-((1-methyl-1H-pyrazol-3-yl)amino)pyrimidin-4-yl)amino)benzamide]: “††† (†††: >0.39)”.
Take `Cc1cccnc1Nc1cc(Nc2ccccc2C(N)=O)ncn1` [Compound 68, 2-((6-((3-methylpyridin-2-yl)amino)pyrimidin-4-yl)amino) benzamide]: the “Ligand Efficiency” value is “††† (†††: >0.39)”.
Turning to `CS(=O)(=O)c1ccccc1Nc1cc(NC(=O)C2CC2)ncn1` [Compound 69, N^4-(cyclopropylcarbonyl)-N^6-(2-(methylsulfonyl)phenyl)pyrimidine-4,6-diamine], the “Ligand Efficiency” value is “††† (†††: >0.39)”.

Source of the values: patent publication US20260048051A1, “TREATMENT OF INFLAMMATORY BOWEL DISEASE” (Atomwise Inc., priority 2024, published 2026).
